For orientation: pEC50 means the EC50 on a negative log10 scale, so that one unit is a factor of ten. Lower therefore signals a high EC50.

The record followed here is patent US11884675B2, “Heterocyclic compounds as triggering receptor expressed on myeloid cells 2 agonists and methods of use” (AMGEN INC., priority 2020, dated 2024).

Structures are written as SMILES. pEC50: −log10 of the molar value.

Sequence of hTREM2 (Q9NZC2 19-230): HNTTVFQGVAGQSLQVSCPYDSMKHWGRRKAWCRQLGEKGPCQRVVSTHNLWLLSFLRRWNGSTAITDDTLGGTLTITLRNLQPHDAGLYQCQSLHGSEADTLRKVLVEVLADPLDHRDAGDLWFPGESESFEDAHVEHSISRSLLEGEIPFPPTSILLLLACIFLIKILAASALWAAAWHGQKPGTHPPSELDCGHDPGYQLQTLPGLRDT
Sequence of hTREM2 (O43914 22-113 partner): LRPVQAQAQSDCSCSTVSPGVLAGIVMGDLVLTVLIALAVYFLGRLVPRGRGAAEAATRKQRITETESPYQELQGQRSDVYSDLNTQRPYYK

The assay addresses hTREM2 (Homo sapiens, UniProt Q9NZC2). The assay is described as follows: TREM2 activity by cellular Syk phosphorylation (AlphaScreen/AlphaLISA) in TREM2/DAP12-HEK cells, used for Examples 1-305. The class given is cell-based. On the set-up: expressed in transfected cells. Conditions: HEK293 Cells. The text has this: In vitro Measurement of Triggering Receptor Expressed on Myeloid Cells 2 activity using cellular phosphorylation of Spleen Tyrosine Kinase (“Syk”) Assays used for Examples 1-305
Pharmacological measurements of TREM2 signaling through DAP12 were made with TREM2 and DAP12 overexpressing HEK293 cells stable cell lines that had been single-cell cloned (“TREM2/DAP12-HEK”). The readout of the TREM2 signaling utilized Perkin Elmer AlphaScreen/AlphaLISA technology monitoring the phosphorylation levels of the Syk kinase. TREM2/DAP12-HEK cell lines were cultured in DMEM-F12 (Corning 10-092-CM) supplemented with 1X Penicillin/Streptomycin (Corning 30-002-CI), 1X GlutaMAX (Gibco 35050-061), and 10% Fetal Bovine Serum (Life Technologies 10099) referred to as “HEK Culture Medium”. Suspensions of TREM2/DAP12-HEK cells were prepared in HEK Culture Medium and dispensed into 384-well poly-D-lysine coated microplates (Corning 354661) at a density of 20,000 cells/well using a Multidrop Combi peristaltic microplate dispenser (Thermo), 25 μL volume of cell suspension/well. Plates containing cells were then incubated for 20 hours in a humidified cell culture incubator at 37° C. with 5% CO2 (Thermo). After incubation, culture medium was removed from all wells of each microplate and replaced with 20 μL of “Assay Buffer” comprised of DMEM-F12 (Corning 10-092-CM) supplemented with 1X Penicillin/Streptomycin (Corning 30-002-CI) and 0.1% Pluronic F-68 Polyol (MP Biomedical 092750049) using a Bravo 384-well pipette-based liquid handling system (Agilent). Assay Buffer contained diluted test articles (in 1% final DMSO concentration for compounds) or 100 nM anti-human/mouse TREM2 antibody (R&D Systems MAB17291) as a positive control, or 100 nM or rat IgG2B isotype Ab as a negative control (R&D Systems MAB0061). The plates were incubated with test articles and controls for 45 minutes at room temperature and then the medium was aspirated/removed from each well of the plates. A Multidrop Combi peristaltic liquid handler (Thermo) was used to dispense 15 μL/well of “Cell Lysis Immunoassay Buffer”. The Cell Lysis Immunoassay Buffer contained M-PER Mammalian Protein Extraction Reagent (Pierce/ThermoFisher 78505), 1X Halt Phosphatase Inhibitor Cocktail (ThermoFisher #78427), 0.1875 nM anti-phospho-Syk (Tyr525/526) (C87C1) rabbit mAb (Cell Signaling Technologies catalog #2710), and 1.5 nM biotinylated Mouse anti-human Syk (4D10) antibody (BD Biosciences, catalog #624008). Plates were incubated for 1 hour at room temperature after the addition of the Cell Lysis Immunoassay Buffer. The Multidrop Combi liquid handler was used to dispense 15 μL of AlphaScreen Acceptor Bead Solution containing 7.5 μg/mL anti-rabbit IgG (Fc specific) AlphaLISA Acceptor Beads (Perkin Elmer AL104R) in 1X Immunoassay buffer (Perkin Elmer AL000F) to each well of the microplates. The plates were incubated for 2 hours at room temperature. Following the incubation with the AlphaLISA Acceptor Bead Solution, a Multidrop Combi liquid handler (Thermo) was used to dispense 15 μL of AlphaScreen Donor Bead Solution containing 30 μg/mL of AlphaScreen Streptavidin Donor beads (Perkin Elmer 6760002B) in 1X Immunoassay buffer (Perkin Elmer AL000F) to each well of the microplates. Microplates were incubated for 2 hours protected from light sources as the AlphaScreen reagents are light sensitive. Once the final incubation was completed, an AlphaScreen signal was acquired from the donor and acceptor beads using an Envision high throughput multi-modal microplate reader (Perkin Elmer) calibrated to the plate type with the AlphaScreen mirror and filter-set in 384-well mode, 680 nanometer excitation wavelength. The total measurement time per well was 550 milliseconds with a 180 millisecond excitation time. […]
A general note: Alpha assays give light when donor and acceptor beads are brought close together.
Regarding `Cc1nc2nc(N3CCO[C@@H](c4cnn(C)c4)C3)nc(C3CCC(Cl)CC3)c2nc1C` (mixture of isomers) [Example 165, 4-(trans-4-chlorocyclohexyl)-6,7-dimethyl-2-((2S)-2-(1-methyl-1H-pyrazol-4-yl)-4-morpholinyl) pteridine], the pEC50 is no less than 7.30; the “hTREM2 Emax” value was “+++ (Emax>150 and ≤250)”.

Consider `Cc1cc([C@@H]2C[C@H](c3cc4nc(C)c(C)nc4c(-c4ccc(Cl)cc4F)n3)CCO2)ccn1` (relative stereo) [Example 217, 5-(4-chloro-2-fluorophenyl)-2,3-dimethyl-7-((2S,4R)-2-(2-methyl-4-pyridinyl)tetrahydro-2H-pyran-4-yl)pyrido [3,4-b]pyrazine], for which the pEC50 is 6.30 to 7.30; the “hTREM2 Emax” value was “+++ (Emax>150 and ≤250)”.

Consider `Cc1cc([C@@H]2CN(c3nc4nc(C)cnc4c([C@H]4C[C@@H](C(F)(F)F)C4)n3)CCO2)cnn1` (single isomer, unassigned) [Example 14], for which the pEC50 was 6.30 to 7.30; the “hTREM2 Emax” value is “++ (Emax>100 and ≤150)”.

With `Cc1ncc([C@H]2CN(c3nc(-c4ccc(Cl)cc4F)c4nc(C)c(C)nc4n3)CCO2)cn1` (single isomer, unassigned) [Example 24], the negative-log EC50 (pEC50) was 6.30 to 7.30 and the “hTREM2 Emax” value is “++++ (Emax>250)”.

On to `Cc1ncc([C@@H]2CN(c3nc(-c4ccc(Cl)cc4F)c4nc(C)c(C)nc4n3)CCO2)cn1` (single isomer, unassigned) [Example 25], for which the pEC50 is no less than 7.30 and the “hTREM2 Emax” value is “++++ (Emax>250)”.

As for `Cc1nc2nc(N3CCO[C@@H]([C@@H]4CCOC4)C3)nc(-c3ccc(F)cc3F)c2nc1C` (single isomer, unassigned) [Example 34], the negative-log EC50 (pEC50) is 5.52 to 6.30; the “hTREM2 Emax” value is “+++ (Emax>150 and ≤250)”.

`Cc1nc2nc(N3CCO[C@H]([C@@H]4CCOC4)C3)nc(-c3ccc(F)cc3F)c2nc1C` (single isomer, unassigned) [Example 35]: the pEC50 is 6.30 to 7.30; the “hTREM2 Emax” value was “+++ (Emax>150 and ≤250)”.

On to `Cc1nc2nc(N3CCO[C@H]([C@H]4CCOC4)C3)nc(-c3ccc(F)cc3F)c2nc1C` (single isomer, unassigned) [Example 36], for which the negative logarithm of the EC50 (pEC50) is 6.30 to 7.30; the “hTREM2 Emax” value is “+++ (Emax>150 and ≤250)”.

For the compound `Cc1nc2nc(N3CCO[C@@H](c4cnn(C)c4)C3)nc(N3CCC[C@@H](F)C3)c2nc1C` (single isomer, unassigned) [Example 69], the pEC50 is 5.52 to 6.30; the “hTREM2 Emax” value is “+ (Emax>45 and ≤100)”.

For `Cc1nc2nc(N3CCO[C@@H](c4cnn(C)c4)C3)nc(N3CCC[C@H](F)C3)c2nc1C` (single isomer, unassigned) [Example 70], the pEC50 was 5.52 to 6.30; the “hTREM2 Emax” value was “+ (Emax>45 and ≤100)”.

In the case of `Cc1cc([C@H]2CN(c3nc(-c4ccc(Cl)cc4F)c4ccc(C)nc4n3)CCO2)cnn1` (single isomer, unassigned) [Example 86], the pEC50 is no less than 7.30 and the “hTREM2 Emax” value is “++++ (Emax>250)”.

Turning to `Cc1cc([C@@H]2CN(c3nc(-c4ccc(Cl)cc4F)c4ccc(C)nc4n3)CCO2)cnn1` (single isomer, unassigned) [Example 87], the pEC50 is 6.30 to 7.30 and the “hTREM2 Emax” value is reported as “++++ (Emax>250)”.

As to `Cc1ccc2c(-c3ccc(Cl)cc3F)nc(N3CCO[C@H](c4cnc(C)nc4)C3)nc2n1` (single isomer, unassigned) [Example 89], the pEC50 was 5.52 to 6.30; the “hTREM2 Emax” value was “+++ (Emax>150 and ≤250)”.

Consider `Cc1ccc2c(-c3ccc(Cl)cc3F)nc(N3CCO[C@@H](c4cnc(C)nc4)C3)nc2n1` (single isomer, unassigned) [Example 90], for which the pEC50 was 6.30 to 7.30; the “hTREM2 Emax” value is “+++ (Emax>150 and ≤250)”.

In the case of `Cc1cc([C@H]2CN(c3nc(-c4ccc(Cl)cc4F)c4cc(C)c(C)nc4n3)CCO2)cnn1` (single isomer, unassigned) [Example 104], the pEC50 was no less than 7.30; the “hTREM2 Emax” value is “+++ (Emax>150 and ≤250)”.

Consider `Cc1cc([C@@H]2CN(c3nc(-c4ccc(Cl)cc4F)c4cc(C)c(C)nc4n3)CCO2)cnn1` (single isomer, unassigned) [Example 105], for which the negative logarithm of the EC50 (pEC50) is no less than 7.30 and the “hTREM2 Emax” value is on record as “++++ (Emax>250)”.

Consider `Cc1ncc([C@@H]2CN(c3nc(-c4ccc(Cl)cc4F)c4cc(C)c(C)nc4n3)CCO2)cn1` (single isomer, unassigned) [Example 106], for which the pEC50 is 6.30 to 7.30; the “hTREM2 Emax” value was “+++ (Emax>150 and ≤250)”.

As to `Cc1ncc([C@H]2CN(c3nc(-c4ccc(Cl)cc4F)c4cc(C)c(C)nc4n3)CCO2)cn1` (single isomer, unassigned) [Example 107], the pEC50 is no less than 7.30; the “hTREM2 Emax” value is “+++ (Emax>150 and ≤250)”.

For `Cc1cc([C@H]2CN(c3nc4nc(C)c(C)cc4c([C@H]4C[C@H](C(F)(F)F)C4)n3)CCO2)cnn1` (single isomer, unassigned) [Example 114], the pEC50 is no less than 7.30; the “hTREM2 Emax” value was “+++ (Emax>150 and ≤250)”.

Regarding `Cc1nc2nc(N3CCC(F)(F)[C@@H](c4cnn(C)c4)C3)nc(-c3ccc(Cl)cc3F)c2nc1C` (single isomer, unassigned) [Example 123], the pEC50 was no less than 7.30; the “hTREM2 Emax” value was “+++ (Emax>150 and ≤250)”.

For the compound `Cc1nc2nc(N3CCC(F)(F)[C@H](c4cnn(C)c4)C3)nc(-c3ccc(Cl)cc3F)c2nc1C` (single isomer, unassigned) [Example 124], the negative logarithm of the EC50 (pEC50) is no less than 7.30 and the “hTREM2 Emax” value was “++++ (Emax>250)”.

On to `Cc1nc2nc(N3CCO[C@@H](c4cnn(C)c4)C3)nc(C3=CC[C@H](C(F)(F)F)CC3)c2nc1C` (single isomer, unassigned) [Example 126], for which the pEC50 was 6.30 to 7.30; the “hTREM2 Emax” value is “+ (Emax>45 and ≤100)”.

For `Cc1nc2nc(N3CCO[C@@H](c4cnn(C)c4)C3)nc(C3=CC[C@@H](C(F)(F)F)CC3)c2nc1C` (single isomer, unassigned) [Example 127], the pEC50 is no less than 7.30; the “hTREM2 Emax” value was “++ (Emax>100 and ≤150)”.

Regarding `Cc1cnc2c(-c3ccc(Cl)cc3F)nc([C@H]3CCO[C@@H](c4cnn(C5CC5)c4)C3)nc2n1` (single isomer, unassigned) [Example 170], the pEC50 was no less than 7.30 and the “hTREM2 Emax” value is on record as “++++ (Emax>250)”.

`Cc1cc([C@H]2C[C@@H](c3nc(-c4ccc(Cl)cc4F)c4ncc(C)nc4n3)CCO2)ccn1` (single isomer, unassigned) [Example 171]: the negative-log EC50 (pEC50) is no less than 7.30; the “hTREM2 Emax” value is “+++ (Emax>150 and ≤250)”.

With `Cc1cc([C@@H]2C[C@H](c3nc(-c4ccc(Cl)cc4F)c4ncc(C)nc4n3)CCO2)ccn1` (single isomer, unassigned) [Example 172], the negative-log EC50 (pEC50) was 6.30 to 7.30 and the “hTREM2 Emax” value is “++++ (Emax>250)”.

Take `Cc1cnc2c(-c3ccc(Cl)cc3F)nc([C@H]3CCO[C@@H](c4cnc(C)nc4)C3)nc2n1` (single isomer, unassigned) [Example 173]: the negative logarithm of the EC50 (pEC50) was no less than 7.30; the “hTREM2 Emax” value is “+++ (Emax>150 and ≤250)”.

For `Cc1cnc2c(-c3ccc(Cl)cc3F)nc([C@@H]3CCO[C@H](c4cnc(C)nc4)C3)nc2n1` (single isomer, unassigned) [Example 174], the pEC50 was 6.30 to 7.30; the “hTREM2 Emax” value is “+++ (Emax>150 and ≤250)”.
